# Test results published in patent US8865734B2 (priority 2010, dated 2014).
# Where a name gives a salt, the structure may show the parent alone.
# What was measured:
# [1] = test system: Mycobacterium tuberculosis H37Rv; assay: Kinetics of inhibition and bactericidal activity (CFU plating); type: cell-based; conditions: for colony forming unit (CFU) number (bactericidal activity): after incubation with various concentrations; for growth inhibition: reached around the same time as PA-824, 14 day period
# Method: Mycobacterium tuberculosis H37Rv was incubated at an initial inoculum of 2×10^6 bacteria/ml in Middlebrook 7H9 media containing an increasing concentration of representative compound 47 or 54. Culture samples were collected over a 14 day period. Serial dilutions of the bacterial suspension were performed and plated on 7H 10 medium. Colonies were counted for the different dilutions after 3 weeks incubation at 37° C. under 5% CO2 and compared to that obtained for the DMSO negative and PA-824 positive controls. PA-824 (Stover et al., 2000) is a TB Alliance small chemical compound currently in phase II clinical trials for the treatment of tuberculosis. PA-824 possibly acts via generation of radicals having non-specific toxic effects.
# [2] = test system: M. tuberculosis drug sensitive strain (lab strain H37Rv); assay: MIC by the Alamar blue method, drug sensitive strain; type: cell-based; conditions: Mycobacterium tuberculosis
# [3] = test system: M. tuberculosis inside the host macrophage; assay: QIM: Quantification of Intracellular Mycobacteria (intracellular growth assay, phenotypic cell-based); conditions: Mycobacterium tuberculosis; MIC, 80% bacterial growth inhibition; intracellular growth; read-out: QIM
# How it was run: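 Phenotypic high-content assay measuring M. tuberculosis multiplication inside host macrophages, run as dose response. MIC is the minimum compound concentration giving 80% bacterial growth inhibition.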
# [4] = test system: in vitro grown Mycobacteria (M. tuberculosis); assay: QUM: Quantification of in vitro grown Mycobacteria (in vitro growth fluorescence assay); type: cell-based; conditions: Mycobacterium tuberculosis; MIC, 80% bacterial growth inhibition; in vitro growth; read-out: QUM
# How it was run: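 Mycobacterium tuberculosis grown in vitro was quantified by fluorescence across compound dose responses. MIC is defined as the minimum concentration producing 80% growth inhibition.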
# M. tuberculosis H37Rv = assay: In vivo activity in a murine model of acute tuberculosis infection; parameters: species or system BalbC mice; conditions: 4 weeks of treatment
# Method: The effect of compounds 177 and 185 on the bacterial load of TB-infected mice was compared to that of the reference compound Isoniazid (INH). 8-week old female BalbC mice were infected with 6×10^5 M. tuberculosis H37Rv via intranasal instillation. Mice were sacrificed at day 1 to control the number of CFU in the lungs. In the acute model of infection, mice were treated for 4 weeks, starting at day 1. Compounds were freshly dissolved in a 0.5% methylcellulose solution and administered by oral gavage 5 times/week. Bacterial load was assessed in lungs and spleen after homogenizing the organs in 1×PBS. Serial dilutions of organs homogenates were spread on Middlebrook 7H11 plates and CFU were determined after 3 weeks incubation at 37° C. under 5% CO2.
compound,measurement,setting,value
"CCc1nc2ccccn2c1C(=O)NCc1ccc(-c2ccccc2)cc1 [Compound 47, N-(Biphenyl-4-ylmethyl)-2-ethylimidazo[1,2-a]pyridine-3-carboxamide]",colony forming unit (CFU) number (bactericidal activity),[1],decrease
same,growth inhibition,[1],100%
same,MIC80,[2],1.25 µM
same,MIC,[3],< 1 µM
same,MIC,[4],< 1 µM
"CCc1nc2ccccn2c1C(=O)NCc1ccc(Oc2ccccc2)cc1 [Compound 54, 2-Ethyl-N-(4-phenoxybenzyl)imidazo[1,2-a]pyridine-3-carboxamide]",colony forming unit (CFU) number (bactericidal activity),[1],decrease
same,growth inhibition,[1],100%
same,MIC80,[2],0.625 µM
same,MIC,[3],< 1 µM
same,MIC,[4],< 1 µM
"CCc1nc2cc(Cl)ccn2c1C(=O)NCc1ccc(N2CCN(c3ccc(F)cc3)CC2)cc1 [Compound 177, 7-Chloro-2-ethyl-N-(4-(4-(4-fluorophenyl)piperazin-1-yl)benzyl)imidazo[1,2-a]pyridine-3-carboxamide trihydrochloride]",CFU in the spleen,M. tuberculosis H37Rv; 50 mg/kg orally,No CFU were detected
same,reduction of CFU in the lungs compared to untreated mice,M. tuberculosis H37Rv; 50 mg/kg orally,~2 log CFU
"CCc1nc2ccc(Cl)cn2c1C(=O)NCc1ccc(Oc2ccc(OC(F)(F)F)cc2)cc1 [Compound 185, 6-Chloro-2-ethyl-N-(4-(4-(trifluoromethoxy)phenoxy)benzyl)imidazo[1,2-a]pyridine-3-carboxamide]",CFU in the spleen,M. tuberculosis H37Rv; 50 mg/kg orally,No CFU were detected
same,reduction of CFU in the lungs compared to untreated mice,M. tuberculosis H37Rv; 50 mg/kg orally,~2 log CFU
same,MIC,[3],< 1 µM
same,MIC,[4],< 1 µM
"NNC(=O)c1ccncc1 [INH, Isoniazid, reference compound]",CFU in the lungs,M. tuberculosis H37Rv; 25 mg/kg,No CFU were recovered
same,CFU in the spleen,M. tuberculosis H37Rv; 25 mg/kg,No CFU were recovered
same,MIC80,[2],1.25 µM
"COc1c(N2C[C@@H]3CCCN[C@@H]3C2)c(F)cc2c(=O)c(C(=O)O)cn(C3CC3)c12 [MFX, moxifloxacin, reference compound]",MIC80,[2],1.25 µM
